Measurements as given in ChEMBL document CHEMBL1137594, “Discovery of non-covalent dipeptidyl peptidase IV inhibitors which induce a conformational change in the active site” (Bioorg Med Chem Lett, 2007).

Molecular target: Dipeptidyl peptidase 4 (Rattus norvegicus, UniProt P14740)
Details: po, read-out: Reduction
Description: Ex vivo DDP-IV inhibition after a 30 mpk oral administration to healthy rats compared to vehicle in an oral glucose tolerance test (OGTT)

Chain of Dipeptidyl peptidase 4 (P14740 whole entry): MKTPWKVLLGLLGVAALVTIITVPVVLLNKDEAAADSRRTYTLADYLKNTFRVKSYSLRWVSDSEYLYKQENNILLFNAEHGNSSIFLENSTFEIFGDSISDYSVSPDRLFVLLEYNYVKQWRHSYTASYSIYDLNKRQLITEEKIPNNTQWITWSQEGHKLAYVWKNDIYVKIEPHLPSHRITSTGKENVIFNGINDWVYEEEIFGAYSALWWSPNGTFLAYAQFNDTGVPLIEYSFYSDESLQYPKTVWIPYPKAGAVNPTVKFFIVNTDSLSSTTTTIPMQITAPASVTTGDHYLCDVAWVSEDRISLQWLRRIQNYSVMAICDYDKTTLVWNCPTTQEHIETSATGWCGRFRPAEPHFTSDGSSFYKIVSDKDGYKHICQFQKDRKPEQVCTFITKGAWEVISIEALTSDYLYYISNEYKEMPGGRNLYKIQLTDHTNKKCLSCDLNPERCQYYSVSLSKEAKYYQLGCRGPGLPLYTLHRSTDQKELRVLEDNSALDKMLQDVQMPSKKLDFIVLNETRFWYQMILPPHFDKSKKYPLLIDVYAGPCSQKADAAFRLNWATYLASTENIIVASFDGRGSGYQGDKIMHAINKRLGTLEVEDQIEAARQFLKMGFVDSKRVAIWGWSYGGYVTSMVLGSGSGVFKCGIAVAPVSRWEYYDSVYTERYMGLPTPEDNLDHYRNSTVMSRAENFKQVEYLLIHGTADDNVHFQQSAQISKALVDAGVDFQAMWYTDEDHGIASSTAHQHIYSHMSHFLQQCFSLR

inhibition at 30 mg/kg: 24%
Structure (SMILES): NC(=O)c1ccc(OCC2(NCC(=O)c3ccsc3)CCCC2)cc1
